Measured values from patent US20180325117A1, “PROBIOTIC COMPOSITIONS AND USES THEREOF” (priority 2015, published 2018).

Key:
Type in all cases: in vivo
hairy wart and foot rot = assay: Hoof spray of lactating cows: lameness, hairy wart and foot rot
Mastitis = assay: Teat spray of lactating dairy cows: somatic cell count and Mastitis; details: 210 lactating cows
Source text: The efficacy of iodine versus D+t128 in reducing the presence of Mastitis was studied. […] 210 lactating dairy cows were milked twice a day for four weeks. The somatic cell count (SCC) of the herd at the beginning of the test period was 263,000/ml, as shown in the two right-hand columns of the top panel of FIG. 21. The standard protocol using iodine was as follows: prior to each milking, the teats of the dairy cows were sprayed with 0.5% iodine. After each milking, the teats of the dairy cows were sprayed with 1.0% iodine. Mastitis was evident on 27 of the cows (see bottom panel of FIG. 21). Treatment with iodine was then stopped, and D+t128 was used to treat the teats of the cows. Prior to each milking, the teats of the dairy cows were sprayed with 1.25 ounces of D+t128 at a dilution of 1:128. After each milking, the teats of the dairy cows were sprayed with 1.25 ounces of D+t128 at a dilution of 1:128. At the end of the test period, the SSC had decreased from 263,000/ml to 120,000/ml in the herd treated with D+t128 (see two right-hand columns of the top panel of FIG. 21). The lower the SSC, the healthier the cow; the lower SSC reading correlates with the reduced number of cows with Mastitis. The number of cows with Mastitis had decreased from 27 to 12 (see two right-hand columns of bottom panel of FIG. 21). The SSC values are an average of all milk obtained from the 210 lactating cows. […]

turkeys [1] = assay: Turkey mortality with water additive, flocks of 50,000 turkeys; set-up: mortality cumulative total per group: concentration or dose not given beside the values
Source text: The mortality of the flock of 50,000 turkeys that consumed water with chlorine dioxide was 6.5% as compared to 3% for a flock of 50,000 turkeys consuming water with W+. The y-axis of FIG. 13 represents the cumulative total mortality (%), and the x-axis represents a 19-week period during which the turkeys were observed. The top dotted line represents a flock (of 50,000 turkeys) with chlorine dioxide added to their water. The middle dotted line represents a flock (of 50,000 turkeys) that for four weeks consumed water treated with chlorine dioxide (5 ppm). After four weeks, the water additive was changed to W+ diluted 1:10,000 (note the reduced slope of the mortality curve at week 5). The bottom solid line represents a flock (of 50,000 turkeys) that was fed water with W+.

turkeys [2] = assay: Turkey weight versus barn standard and mortality, six barns
Source text: A common practice among commercial turkey growing facilities is to compare the weight gain of their flocks against a standard that is based on the performance of the grower's previous flocks. The grower has a standard for each barn, or group of barns, based on their recorded history. […] The flocks in the barns being fed W+ in their water (Barns-055, Barn-043, and Barn-025) exceeded standard weights by 11.7%, while the barns where the turkeys were fed water with chlorine dioxide (Barns-041, Barn-047, and Barn-045) were −7.6% compared to standard weights. The y-axis represents % deviation from a standard (Std)(average for each barn), and the x-axis represents data obtained from turkeys in six different barns (approximately 17,000 turkeys per barn).

Clostridial scours = assay: Swine gut health: scours on test farm; details: total population of 3,850 swine; chlorine dioxide standard water protocol, then W+ 1:6,000 in water lines
Protocol: Scours (dysentery) is a common ailment in swine and is symptomatic of poor gut health (gastrointestinal tract health). […] Column (B) is the number of swine (397) that were infected with scours while on a standard water protocol of chlorine dioxide to prevent biofilm in the water lines. The addition of chlorine dioxide was stopped and W+ (at a dilution of 1:6,000) was added to the water lines, the number of swine with scours was reduced to 23 (Column (C)), a 94% reduction in the number of swine with Clostridial scours.

For O=S(=O)([O-])[O-].[Cu+2] [Copper-Sulphate], the “percentage of lame cows” value (hairy wart and foot rot; herd of 500 lactating cows, Copper-Sulphate spray = T0 start, D+h100 1:100 spray = day 35) was “over 35%” and the “cows with swelling indicating new hairy wart formation” value (hairy wart and foot rot; start of test period, prior Copper-Sulphate spray, data not shown) was 60%.
In the case of II [iodine], the “somatic cell count (SCC) of the herd” value (Mastitis; iodine protocol = beginning of test period, D+t128 1:128 teat spray before and after each milking = end of 28-day test period) is reported as 263,000 /ml and the “number of cows with Mastitis” value (Mastitis; iodine protocol = start, D+t128 1:128 = finish of 28-day test period) is reported as 27.
With [O][Cl+][O-] [chlorine dioxide] the “mortality cumulative total per group” value (turkeys [1]; Week 1) was 0.74%, the “mortality cumulative total per group” value (turkeys [1]; Week 2) was 1.45% and the “mortality cumulative total per group” value (turkeys [1]; Week 3) was 1.84%. For the same compound, the “mortality cumulative total per group” value (turkeys [1]; Week 4) was 2.15%, the “mortality cumulative total per group” value (turkeys [1]; Week 5) was 3.52% and the “mortality cumulative total per group” value (turkeys [1]; Week 6) was 3.97%. The “mortality cumulative total per group” value (turkeys [1]; Week 7) was 4.22%, the “mortality cumulative total per group” value (turkeys [1]; Week 8) was 4.46% and the “mortality cumulative total per group” value (turkeys [1]; Week 9) was 4.62%. For the same compound, the “mortality cumulative total per group” value (turkeys [1]; Week 10) was 4.79%, the “mortality cumulative total per group” value (turkeys [1]; Week 11) was 5.01% and the “mortality cumulative total per group” value (turkeys [1]; Week 12) was 5.14%. For the same compound, the “mortality cumulative total per group” value (turkeys [1]; Week 13) was 5.29%, the “mortality cumulative total per group” value (turkeys [1]; Week 14) was 5.46% and the “mortality cumulative total per group” value (turkeys [1]; Week 15) was 5.63%. The “mortality cumulative total per group” value (turkeys [1]; Week 16) was 5.82%, the “mortality cumulative total per group” value (turkeys [1]; Week 17) was 6.05% and the “mortality cumulative total per group” value (turkeys [1]; Week 18) was 6.29%. The “mortality cumulative total per group” value (turkeys [1]; Week 19) was 6.54%, the “mortality cumulative total per group” value (turkeys [1]; Week 20) was 6.84% and the “mortality cumulative total per group” value (turkeys [1]; Week 21) was 6.74%. For the same compound, the “mortality of the flock (cumulative total)” value (turkeys [1]; flock of 50,000 turkeys, FIG. 13, 19-week period, W+ 1:10,000, chlorine dioxide 5 ppm in water) was 6.5%, the “mortality rate (average)” value (turkeys [2]; FIG. 23, turkeys fed water with additive) was 12.3% and the “deviation from standard weights” value (turkeys [2]; three barns per water additive, approximately 17,000 turkeys per barn, FIG. 14) was −7.6%. The “number of swine infected with scours” value (Clostridial scours) was 397.
